According to ChEMBL document CHEMBL5728032, “Fluorine-containing triazolopyridine, and manufacturing method, pharmaceutical composition, and application thereof” (2020):

Molecular target: Metabotropic glutamate receptor 2 (Homo sapiens, UniProt Q14416)
Test: In Vitro Activity Test for mGluR2: Experimental materials: HEK/mGluR2 cell line ([…] transfected HEK cell line), DMEM (FBS) medium, positive control LY487379 (purchased from sigma; CAS: to 352317-17-1)Experimental instrument: FLIPR Tetra real-time fluorescence imaging analysis systemExperimental method: HDB Fluo-8 calcium fluorescence detection methodExperimental principle: HDB Fluo-8 calcium ion fluorescence detection method is a fast, simple and reliable fluorescence detection method of intracellular calcium concentration changes. The Fluo 8-AM fluorescent dye is an acetyl methyl ester derivative of Fluo 8 which can easily penetrate into the cell membrane by culture. The fluorescent dye in the cell will be hydrolyzed by intracellular esterase, the resulting Fluo 8 as a polar molecule, cannot easily pass through the lipid bimolecular membrane, and will be retained in the cell, and combine with calcium (Ca2+) to produce fluoresces.Cells expressing GPCR receptor protein (mGluR2) were first calibrated with a calcium ion sensitive fluorescent probe and then stimulated with the compound. After stimulation, the receptor activates the calcium ion mobilization, and the fluorescent probe captures the calcium ion to induce the fluorescence signal. The signal can be read by a fluoroscopy plate. The fluorescent plate reader contains a sample addition for compound addition, thus enabling the change of the fluorescence value of the compound be read in real time.
Type: cell-based

Chain of Metabotropic glutamate receptor 2 (Q14416 whole entry): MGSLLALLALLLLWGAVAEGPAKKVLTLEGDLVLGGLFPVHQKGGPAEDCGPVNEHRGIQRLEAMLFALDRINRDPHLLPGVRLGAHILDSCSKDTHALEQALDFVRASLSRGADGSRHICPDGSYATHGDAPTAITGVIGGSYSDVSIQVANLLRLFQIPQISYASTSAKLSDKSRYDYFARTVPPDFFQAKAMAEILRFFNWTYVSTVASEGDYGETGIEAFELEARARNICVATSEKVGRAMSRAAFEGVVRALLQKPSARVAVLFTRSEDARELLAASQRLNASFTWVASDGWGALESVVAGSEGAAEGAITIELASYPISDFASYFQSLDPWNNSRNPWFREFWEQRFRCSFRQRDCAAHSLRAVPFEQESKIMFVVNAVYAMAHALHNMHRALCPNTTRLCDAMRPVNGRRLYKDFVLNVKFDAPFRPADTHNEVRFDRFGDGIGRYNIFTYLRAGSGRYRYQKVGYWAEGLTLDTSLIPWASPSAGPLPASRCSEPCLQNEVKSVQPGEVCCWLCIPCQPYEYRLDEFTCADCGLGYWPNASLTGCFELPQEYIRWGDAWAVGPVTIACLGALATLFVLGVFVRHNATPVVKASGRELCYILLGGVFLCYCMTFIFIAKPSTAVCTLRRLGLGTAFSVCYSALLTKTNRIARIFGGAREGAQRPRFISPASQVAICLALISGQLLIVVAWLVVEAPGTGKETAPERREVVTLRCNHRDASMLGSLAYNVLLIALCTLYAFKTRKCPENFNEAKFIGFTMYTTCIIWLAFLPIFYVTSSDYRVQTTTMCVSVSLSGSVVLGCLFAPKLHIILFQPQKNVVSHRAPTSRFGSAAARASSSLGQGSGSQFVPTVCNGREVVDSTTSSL

EC50 [nM] | SMILES
970 | c1cc2c(cc1-c1ccn3c(CC4CC4)nnc3c1)OCO2
910 | COC(=O)c1ccc(-c2ccn3c(CC4CC4)nnc3c2Cl)c(F)c1
890 | Clc1c(-c2ccc3c(c2)OCO3)ccn2c(CC3CC3)nnc12
